Series [1] can be described thus: Metabolic stability in pooled human liver microsomes. The series is classed as in vitro ADME. The following applies: human, pooled human liver microsomes, pooled human liver microsomes 0.5 mg/mL, 1 μM test compound, 37° C., * rows = mean of two runs. The method, boiled down:
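Pooled human liver microsomes (0.5 mg/mL in PBS) preincubated ±1 mM NADPH at 37° C; test compound added at 10 min to 1 μM final. Samples at 0, 5, 15 and 60 min quenched in acetonitrile, parent quantified by LC-MS/MS against a standard curve (terfenadine internal standard). Initial metabolic rate calculated with and without NADPH.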
In general terms: Microsomes from liver hold many membrane-bound enzymes, among them those of drug oxidation.

In the next series the target is T1, CYP2C19 (Homo sapiens, UniProt P33261).
T1 construct: isoform-specific substrates incubated with human liver microsomes; tissue Eurofins ITEMG232 (protocol number); host or cells: human liver microsomes
T1 sequence (P33261 whole entry, canonical isoform): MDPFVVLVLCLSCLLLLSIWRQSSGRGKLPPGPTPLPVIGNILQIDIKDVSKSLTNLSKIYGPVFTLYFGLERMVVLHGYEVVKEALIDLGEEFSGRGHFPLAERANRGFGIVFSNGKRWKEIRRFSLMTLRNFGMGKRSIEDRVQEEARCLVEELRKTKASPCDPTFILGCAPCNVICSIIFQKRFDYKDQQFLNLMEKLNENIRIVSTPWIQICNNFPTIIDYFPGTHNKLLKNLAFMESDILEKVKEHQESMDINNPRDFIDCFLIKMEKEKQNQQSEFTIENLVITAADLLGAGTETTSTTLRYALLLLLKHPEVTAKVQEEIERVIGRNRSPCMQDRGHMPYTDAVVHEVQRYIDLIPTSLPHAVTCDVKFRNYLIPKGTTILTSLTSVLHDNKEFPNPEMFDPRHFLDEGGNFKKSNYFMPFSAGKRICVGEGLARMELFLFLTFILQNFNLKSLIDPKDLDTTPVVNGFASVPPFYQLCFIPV
Put plainly: CYP inhibition in human liver microsomes (Eurofins ITEMG232). The series is classed as in vitro ADME. The conditions noted are these: human, probe omeprazole, substrate omeprazole, read-out: CYP2C19 Inh %.

The next series addresses T2, CYP1A2 (Homo sapiens, UniProt P05177).
T2 construct: isoform-specific substrates incubated with human liver microsomes; tissue Eurofins ITEMG232 (protocol number); host or cells: human liver microsomes
Kind of series: in vitro. The conditions noted are these: human, microsomes, human liver microsomes, substrate phenacetin, read-out: CYP1A2 Inh %. The series is classed as in vitro ADME.

In the next series the test system is CYP3A4&5. Put plainly: in vitro. The following applies: human, human liver microsomes, probe testosterone.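 Note: Read-out is the metabolite generated from the probe substrate, quantified as HPLC-MS/MS peak area once incubation ends.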
A further series concerns the target T3, CYP2C8 (Homo sapiens, UniProt P10632).
T3 construct: isoform-specific substrates incubated with human liver microsomes; tissue Eurofins ITEMG232 (protocol number); host or cells: human liver microsomes
T3 sequence (P10632 1-490): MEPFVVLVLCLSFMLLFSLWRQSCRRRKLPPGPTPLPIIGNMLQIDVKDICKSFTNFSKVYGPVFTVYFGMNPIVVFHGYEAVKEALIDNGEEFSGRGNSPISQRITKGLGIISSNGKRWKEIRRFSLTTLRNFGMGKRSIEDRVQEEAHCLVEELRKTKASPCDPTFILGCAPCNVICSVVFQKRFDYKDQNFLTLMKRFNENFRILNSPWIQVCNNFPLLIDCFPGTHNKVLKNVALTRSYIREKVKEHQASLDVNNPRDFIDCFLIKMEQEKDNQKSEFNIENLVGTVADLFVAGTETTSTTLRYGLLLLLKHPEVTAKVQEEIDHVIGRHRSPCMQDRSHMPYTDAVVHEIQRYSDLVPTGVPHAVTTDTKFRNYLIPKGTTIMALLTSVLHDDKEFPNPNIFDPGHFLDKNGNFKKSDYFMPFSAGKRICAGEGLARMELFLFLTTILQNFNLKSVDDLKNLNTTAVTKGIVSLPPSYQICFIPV
Kind of series: CYP inhibition in human liver microsomes (Eurofins ITEMG232). The series is classed as in vitro ADME. The conditions noted are these: human, probe paclitaxel and amodiaquine, substrate paclitaxel and amodiaquine, read-out: CYP2C8 Inh %.

The target in another series is CYP2C9 (Homo sapiens, UniProt P11712). Described as above. Format: in vitro ADME. Also noted: isoform-specific substrates incubated with human liver microsomes; tissue Eurofins ITEMG232 (protocol number); host or cells: human liver microsomes. The following applies: human, probe diclofenac, substrate diclofenac, read-out: CYP2C9 Inh %.
CYP2C9, sequence (P11712 whole entry, canonical isoform): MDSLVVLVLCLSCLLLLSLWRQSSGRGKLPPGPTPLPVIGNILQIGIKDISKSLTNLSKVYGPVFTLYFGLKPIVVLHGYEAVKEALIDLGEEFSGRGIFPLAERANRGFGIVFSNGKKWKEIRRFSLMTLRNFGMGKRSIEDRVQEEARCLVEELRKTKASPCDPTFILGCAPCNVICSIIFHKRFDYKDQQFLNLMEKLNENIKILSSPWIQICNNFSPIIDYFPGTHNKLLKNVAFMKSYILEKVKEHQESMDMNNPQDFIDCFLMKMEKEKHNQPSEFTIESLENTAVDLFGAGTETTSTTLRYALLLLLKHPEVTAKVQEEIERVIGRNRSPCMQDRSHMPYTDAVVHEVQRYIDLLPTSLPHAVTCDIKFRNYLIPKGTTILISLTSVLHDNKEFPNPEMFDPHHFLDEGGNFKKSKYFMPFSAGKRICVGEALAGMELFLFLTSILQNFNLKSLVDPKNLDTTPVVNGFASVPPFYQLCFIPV
The target in a further series is CYP3A4 (Homo sapiens, UniProt P08684). Kind of series: CYP inhibition in human liver microsomes (Eurofins ITEMG232), midazolam substrate. The series is classed as in vitro ADME. Also noted: isoform-specific substrates incubated with human liver microsomes; tissue Eurofins ITEMG232 (protocol number); host or cells: human liver microsomes. The following applies: human, probe midazolam, read-out: CYP3A4 midazolam Inh %.
CYP3A4, sequence (P08684 whole entry, canonical isoform): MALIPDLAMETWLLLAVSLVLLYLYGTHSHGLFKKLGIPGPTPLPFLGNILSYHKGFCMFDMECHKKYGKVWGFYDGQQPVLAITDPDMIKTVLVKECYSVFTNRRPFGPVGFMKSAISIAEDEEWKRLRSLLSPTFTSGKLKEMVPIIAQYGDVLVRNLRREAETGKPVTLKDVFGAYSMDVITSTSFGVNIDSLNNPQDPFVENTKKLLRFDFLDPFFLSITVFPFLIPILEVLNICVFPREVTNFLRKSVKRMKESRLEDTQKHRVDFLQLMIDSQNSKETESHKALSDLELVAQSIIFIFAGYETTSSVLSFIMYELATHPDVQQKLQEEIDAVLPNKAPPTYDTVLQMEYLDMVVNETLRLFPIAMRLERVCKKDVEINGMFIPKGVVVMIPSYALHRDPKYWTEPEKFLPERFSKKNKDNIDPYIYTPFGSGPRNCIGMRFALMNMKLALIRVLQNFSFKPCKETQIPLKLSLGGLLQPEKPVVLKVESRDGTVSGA

In series [2] the target is T4, human recombinant AT1 receptor (Homo sapiens, UniProt P30556).
T4 construct: purchased Eurofins ITEM24 (protocol number)
T4 sequence (P30556 1-359): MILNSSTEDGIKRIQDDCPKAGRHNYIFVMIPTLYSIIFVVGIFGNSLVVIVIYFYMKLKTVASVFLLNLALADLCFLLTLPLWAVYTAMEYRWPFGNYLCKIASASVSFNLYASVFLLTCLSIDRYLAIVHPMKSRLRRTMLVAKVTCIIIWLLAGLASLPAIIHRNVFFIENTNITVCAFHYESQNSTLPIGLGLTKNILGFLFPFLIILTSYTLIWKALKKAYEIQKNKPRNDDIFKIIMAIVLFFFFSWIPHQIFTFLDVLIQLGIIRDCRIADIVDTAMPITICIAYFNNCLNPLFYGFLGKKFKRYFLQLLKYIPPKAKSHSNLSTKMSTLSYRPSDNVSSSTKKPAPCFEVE
Kind of series: Binding to AT1 receptor, radiometric scintillation assay (Eurofins ITEM24). The conditions noted are these: test compounds at 1 and 10 μM, ligand 125I(sar1,Ile8)-AT-II; * rows = mean of runs.

The target in the next series is T5, CYP2B6 (Homo sapiens, UniProt P20813).
T5 construct: isoform-specific substrates incubated with human liver microsomes; tissue Eurofins ITEMG232 (protocol number); host or cells: human liver microsomes
T5 sequence (P20813 1-491): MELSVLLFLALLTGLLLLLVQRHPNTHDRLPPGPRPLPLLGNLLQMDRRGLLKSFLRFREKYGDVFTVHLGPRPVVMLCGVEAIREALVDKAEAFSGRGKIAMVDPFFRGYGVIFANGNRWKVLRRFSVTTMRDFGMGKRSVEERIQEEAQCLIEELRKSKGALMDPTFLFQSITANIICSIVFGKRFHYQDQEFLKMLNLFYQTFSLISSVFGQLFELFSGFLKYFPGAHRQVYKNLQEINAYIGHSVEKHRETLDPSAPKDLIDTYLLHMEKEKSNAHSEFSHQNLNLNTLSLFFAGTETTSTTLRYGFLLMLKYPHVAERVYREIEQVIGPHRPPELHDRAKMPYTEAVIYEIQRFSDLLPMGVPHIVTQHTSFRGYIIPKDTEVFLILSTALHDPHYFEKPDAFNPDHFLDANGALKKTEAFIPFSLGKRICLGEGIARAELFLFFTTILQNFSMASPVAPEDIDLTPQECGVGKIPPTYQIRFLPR
Kind of series: CYP inhibition in human liver microsomes (Eurofins ITEMG232). Format: in vitro ADME. The following applies: probe bupropion, substrate bupropion, read-out: CYP2B6 Inh %.

Series [3] deals with T6, human recombinant AT2 receptor (Homo sapiens, UniProt P50052).
T6 construct: purchased Eurofins ITEM26 (protocol number)
T6 sequence (P50052 1-363): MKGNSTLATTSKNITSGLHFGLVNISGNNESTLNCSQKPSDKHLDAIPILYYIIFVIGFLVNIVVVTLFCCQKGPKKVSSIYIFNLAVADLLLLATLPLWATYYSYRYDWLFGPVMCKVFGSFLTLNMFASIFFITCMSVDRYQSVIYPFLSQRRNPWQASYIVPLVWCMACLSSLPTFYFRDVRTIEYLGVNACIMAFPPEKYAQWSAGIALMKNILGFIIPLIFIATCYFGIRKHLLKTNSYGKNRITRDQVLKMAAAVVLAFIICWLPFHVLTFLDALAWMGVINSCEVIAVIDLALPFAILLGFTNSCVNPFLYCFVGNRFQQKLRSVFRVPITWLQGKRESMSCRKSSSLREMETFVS
Put plainly: Binding to AT2 receptor, radiometric scintillation assay (Eurofins ITEM26). The conditions noted are these: ligand 125I CGP 42112A, * rows = mean of runs; for Ki: seven-point dose-response curve; for IC50: test compounds at 1, 10, 100 and 1000 nM, read-out: AT2 GraFit IC50.

The target of another series is T7, CYP2D6 (Homo sapiens, UniProt P10635).
T7 construct: isoform-specific substrates incubated with human liver microsomes; tissue Eurofins ITEMG232 (protocol number); host or cells: human liver microsomes
T7 sequence (P10635 whole entry, canonical isoform): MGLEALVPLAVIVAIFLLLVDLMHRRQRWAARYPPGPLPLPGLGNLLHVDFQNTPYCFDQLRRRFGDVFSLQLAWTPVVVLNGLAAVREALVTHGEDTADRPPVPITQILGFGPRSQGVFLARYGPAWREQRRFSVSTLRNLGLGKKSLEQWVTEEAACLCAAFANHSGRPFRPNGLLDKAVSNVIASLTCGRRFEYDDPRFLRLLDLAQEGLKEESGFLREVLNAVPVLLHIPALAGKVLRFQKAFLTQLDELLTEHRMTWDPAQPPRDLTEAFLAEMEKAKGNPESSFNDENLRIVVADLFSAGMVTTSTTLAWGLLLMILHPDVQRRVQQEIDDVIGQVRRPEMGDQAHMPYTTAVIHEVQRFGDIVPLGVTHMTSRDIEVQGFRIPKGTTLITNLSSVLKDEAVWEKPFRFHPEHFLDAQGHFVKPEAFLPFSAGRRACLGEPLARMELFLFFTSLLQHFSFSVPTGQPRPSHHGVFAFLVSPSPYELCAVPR
Kind of series: CYP inhibition in human liver microsomes (Eurofins ITEMG232). The conditions noted are these: probe dextromethorphan, substrate dextromethorphan, read-out: CYP2D6 Inh %. Format: in vitro ADME.

Where [4] appears, read: with 1 mM NADPH, read-out: T1/2, + NaDPH.
Where [5] appears, read: without NADPH, read-out: T1/2, no NaDPH.

The structures appear in SMILES notation. Read-outs that look alike come from different tables or passages of the source. Some results are limits rather than exact numbers.

T2 sequence (P05177 whole entry, canonical isoform): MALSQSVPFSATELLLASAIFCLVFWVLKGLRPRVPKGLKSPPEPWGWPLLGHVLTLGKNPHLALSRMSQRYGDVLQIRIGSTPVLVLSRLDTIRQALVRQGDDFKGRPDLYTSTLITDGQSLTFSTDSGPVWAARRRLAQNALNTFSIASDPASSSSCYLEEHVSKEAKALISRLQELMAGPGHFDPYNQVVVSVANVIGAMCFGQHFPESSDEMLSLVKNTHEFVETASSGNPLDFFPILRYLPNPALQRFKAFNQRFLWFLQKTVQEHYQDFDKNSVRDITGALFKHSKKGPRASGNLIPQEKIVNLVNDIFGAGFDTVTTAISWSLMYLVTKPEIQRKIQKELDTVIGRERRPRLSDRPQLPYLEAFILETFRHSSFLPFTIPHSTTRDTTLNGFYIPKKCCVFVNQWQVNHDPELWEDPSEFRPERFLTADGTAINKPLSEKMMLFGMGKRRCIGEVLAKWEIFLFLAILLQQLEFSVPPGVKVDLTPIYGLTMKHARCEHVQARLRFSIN
Procedure for CYP1A2: The following substrates were used; CYP1A phenacetin, CYP2B36 bupropion, CYP2C8 paclitaxel and amodiaquine, CYP2C9 diclofenac, CYP2C19 omeprazole, CYP2D6 dextromethorphan, CYP3A midazolam and testosterone.
At the end of the incubation, the formation of metabolite was monitored by HPLC-MS/MS as the peak area response.

For orientation: IC50 means the concentration at which inhibition is half-maximal. As a reminder, the Ki is the dissociation constant of the complex between target and ligand, obtained from inhibition or displacement. Consider `CC(C)Cc1ccc(S(=O)(=O)Nc2ncc(F)cn2)c(-c2ccc(Cn3ccnc3C(C)(C)C)c(F)c2)c1` [Example 9, 4′-((2-(tert-Butyl)-1H-imidazol-1-yl)methyl)-3′-fluoro-N-(5-fluoropyrimidin-2-yl)-5-isobutyl-[1,1′-biphenyl]-2-sulfonamide], for which the half-life at 1 μM in series [1] (setting [4]) and in series [1] (setting [5]) was more than 60 min each time. Moreover, the inhibition at 10 µM at CYP2C19 is 35.8%; at CYP1A2 it was 48.6%; with CYP3A4&5, -14.9%; on CYP2C8 it was 91.6%; at CYP2C9, 73.1%; on CYP3A4, 7.7%. Besides, the inhibition at 10 µM on CYP2B6 came to 30.4%; on CYP2D6 it was 16.4%. Also, the IC50 was 5.2 µM in series [2] and 4.11 nM in series [3]. Further, the Ki in series [3] was determined as 2.05 nM.
With `CC(C)Cc1ccc(S(=O)(=O)Nc2ncccn2)c(-c2ccc(Cn3ccnc3C(C)(C)C)c(F)c2)c1` [Example 7, 4′-((2-(tert-Butyl)-1H-imidazol-1-yl)methyl)-3′-fluoro-5-isobutyl-N-(pyrimidin-2-yl)-[1,1′-biphenyl]-2-sulfonamide], the half-life at 1 μM is 54 min in [1] (setting [4]) and more than 60 min in [1] (setting [5]). The inhibition at 10 µM was 41% on CYP2C19; 45.9% at CYP1A2; 3.7% with CYP3A4&5; 78% at CYP2C8; 41.3% on CYP2C9; -12.5% at CYP3A4. Besides, the inhibition at 10 µM at CYP2B6 was 38.9%; at CYP2D6, 15%. For the same compound, the IC50 in series [2] is 15 µM; in series [3], 2.54 nM. For the same compound, the Ki in series [3] is 1.27 nM.
Regarding `Cc1cnc(NS(=O)(=O)c2ccc(CC(C)C)cc2-c2ccc(Cn3ccnc3C(C)(C)C)cc2)nc1` [Example 20, 4′-((2-(tert-Butyl)-1H-imidazol-1-yl)methyl)-5-isobutyl-N-(5-methylpyrimidin-2-yl)-[1,1′-biphenyl]-2-sulfonamide], the figures for the half-life at 1 μM in series [1] (setting [4]) and in [1] (setting [5]) were 40 min and more than 60 min, respectively. Also, the inhibition at 10 µM stood at 48% on CYP2C19; 10.7% at CYP1A2; 28.1% in the series with CYP3A4&5; 40.9% at CYP2C8; 69% on CYP2C9; 47.5% at CYP3A4. The inhibition at 10 µM at CYP2B6 is 12.5%; on CYP2D6, 20.1%. Also, the half-inhibitory concentration (IC50) in series [2] turned out to be 22.7 µM; in series [3] it was 7.5 nM. Besides, the Ki in series [3] amounted to 3.75 nM.
Take `Cc1nc(NS(=O)(=O)c2ccc(CC(C)C)cc2-c2ccc(Cn3ccnc3C(C)(C)C)c(F)c2)oc1C` [Example 24, 4′-((2-(tert-Butyl)-1H-imidazol-1-yl)methyl)-N-(4,5-dimethyloxazol-2-yl)-3′-fluoro-5-isobutyl-[1,1′-biphenyl]-2-sulfonamide]: the results for the half-life at 1 μM in [1] (setting [4]) and in [1] (setting [5]) were 33 min and more than 60 min, respectively. For the same compound, the inhibition at 10 µM is 57% at CYP2C19; -19.4% on CYP1A2; 47.5% in the series with CYP3A4&5; 59.6% on CYP2C8; 52.7% at CYP2C9; 36% at CYP3A4. The inhibition at 10 µM amounted to 26.9% at CYP2B6 and 1.1% on CYP2D6. Besides, the IC50 in series [2] is 1.1 µM; in series [3] it was 1.45 nM. Besides, the Ki in series [3] was 0.72 nM.
For `CC(C)Cc1ccc(S(=O)(=O)Nc2ncc(C#N)cn2)c(-c2ccc(Cn3ccnc3C(C)(C)C)c(F)c2)c1` [Example 12, 4′-((2-(tert-Butyl)-1H-imidazol-1-yl)methyl)-N-(5-cyanopyrimidin-2-yl)-3′-fluoro-5-isobutyl-[1,1′-biphenyl]-2-sulfonamide], the half-life at 1 μM in series [1] (setting [4]) is 58 min; in series [1] (setting [5]), more than 60 min. Also, the inhibition at 10 µM is 48.9% at CYP2C19; 16.7% on CYP1A2; -41.8% in the series on CYP3A4&5; 89.6% on CYP2C8; 82.3% at CYP2C9; 14.6% on CYP3A4. In addition, the inhibition at 10 µM at CYP2B6 was 35.8%; at CYP2D6 it was 18.4%. In addition, the results for the IC50 in series [2] and in series [3] were 1.7 µM and 4.17 nM, respectively. The Ki in series [3] was 2.08 nM.
`COc1ncncc1NS(=O)(=O)c1ccc(CC(C)C)cc1-c1ccc(Cn2ccnc2C(C)(C)C)c(F)c1` [Example 22, 4′-((2-(tert-Butyl)-1H-imidazol-1-yl)methyl)-3′-fluoro-5-isobutyl-N-(4-methoxy-pyrimidin-5-yl)-[1,1′-biphenyl]-2-sulfonamide]: the half-life at 1 μM in [1] (setting [4]) was 8 min; in [1] (setting [5]), more than 60 min. Also, the inhibition at 10 µM at CYP2C19 is 85.7%; at CYP1A2, -1.1%; with CYP3A4&5 it was 97%; on CYP2C8, 58.1%; on CYP2C9, 94.7%; on CYP3A4, 98.2%. Besides, the figures for the inhibition at 10 µM at CYP2B6 and on CYP2D6 were 20.5% and 4%, respectively. The figures for the half-maximal inhibitory concentration (IC50) in [2] and in series [3] were 58.7 µM and 142 nM, respectively. The Ki in [3] amounted to 71 nM.
